Measured values as given in patent US8207154B2, “Catatonic bacteriochlorophyll derivatives” (Yeda Research and Development Co., Ltd., priority 2005, dated 2012).
Where two headings read alike, the source gives them in different places.

Experiments:
[1] = target: St. albus; experiment: Phototoxicity on Gram-positive bacteria, colony counting; assay type: cell-based; settings: 1 h incubation, illuminated 15 min at 70 mW/cm^2; read-out: Kd (phototoxicity)
Experimental: (§1) (ii) Bacterial cultures. Bacteria of strains St. albus and E. coli XL-1 were cultured in liquid LB medium (E. coli in LB containing 12.5 μg tetracyclin/ml) to a final density of OD600 nm=0.5-0.9 (1 OD=8×10^8 bacteria/ml). The bacteria were spun down (4000×g, 5 min.) and resuspended in PBS.
(§2) (b) Bacterial. To determine the photodynamic efficacy, bacteria were diluted to aliquots of 300 μl containing about 10^7 bacteria, and incubated with increasing concentrations of sensitizer in plastic test tubes in the dark for 1 h at room temperature, and then illuminated at 70 mW/cm^2 for 15 min. Samples of the treated bacteria cultures were subsequently plated at different dilutions (50-200 bacteria/plate) on LB agar and cultured for 24 h at 37° C. for determination of bacterial survival by colony counting. Triplicate determinations were conducted and representative experiments are shown.
(§3) The phototoxicity of positively-charged compound 5 was tested on Gram-positive St. albus and Gram-negative E. coli bacteria in comparison to the negatively-charged Pd 3^1-oxo-15-methoxycarbonylmethyl-Rhodobacteriochlorin 13^1-(2-sulfoethyl)amide dipotassium salt (described in PCT/IL03/00973). Bacteria were incubated with increasing concentrations of the sensitizers for 1 h and illuminated or kept in the dark. […] Gram-positive bacteria St. albus, was 100 times more sensitive to compound 5 than Gram-negative E. coli. No phototoxicity was observed when bacteria were incubated and treated with the same sensitizers' concentration range without illumination (dark controls).

[2] = test system: E. coli; experiment: Phototoxicity on Gram-negative bacteria, colony counting; assay type: cell-based, E. coli XL-1; settings: 1 h incubation, illuminated
Experimental: as §1, §2, §3

[3] = test system: H5V cells; experiment: Phototoxicity assay (PDT efficacy at two incubation times), neutral red survival; assay type: cell-based, mouse; settings: for IC50: then 10 min illumination, 12 J/cm^2
Experimental: H5V cells (40×10^3/well) were cultured in 96-well plates for 24 h to ˜80% confluence. To determine phototoxicity, the culture medium was replaced with 100 μl/well medium, in the absence or presence of 10^−8 to 10^−6 M sensitizer, and incubated in the dark for 15 min or 3 h in the culture incubator. The plates (PDT group) were then placed in the light field at room temperature and illuminated from the bottom for 10 min (800>λ>650 nm, 12 J/cm^2). After illumination, the medium was changed to fresh culture medium. The cultures were then placed in the culture incubator and cell survival was determined 24 h later, using the neutral red survival assay described below.
Following 24 h post PDT the culture medium in the wells was replaced with 100 μl fresh medium containing 40 μg/ml neutral red. The plate was incubated for 1.5 h in a dark culture incubator. The medium was aspirated and the cells washed with 100 μl of solution containing 1% CaCl2 and 0.5% formaldehyde, which removes the unincorporated dye and fixes the cells to the substratum. The dye was then extracted from the cells into the supernatant upon addition of 100 μl 1% glacial acetic acid in 50% ethanol. After 1-2 min at room temperature, the optical density of the wells was determined in a microplate spectrophotometer using a 570 nm filter. After subtraction of assay blanks, net optical density was computed as the average value of triplicate determinations. Cell survival was calculated as the percent of the dye accumulated in the untreated control. To determine cell survival data was plotted against sensitizer concentration. These curves were then used to calculated LD50 values.
Following synthesis, the compounds described in the Examples 23 to 75 above were purified, divided into equal aliquots and lyophilized for storage (desiccated at −20° C.). The exact material content was determined by HPLC-diode array detection, and the PDT efficacy was evaluated at two incubation times as described in the experimental section.

[4] = Octanol/water partition ratio; assay type: physicochemical
Excerpt: Optical absorption in water, λ (relative absorption): 753 (1.00), 519 (0.30), 354 (1.25) nm. Octanol/water partition ratio is 40/60. ESI-MS (+): 413.62 ([M-2×citrate]/2). Octanol/water partition ratio is 50/50. ESI-MS (+): 455.89 ([M-2×citrate]/2). Octanol/water partition ratio is 75/25.

[5] = 15 min incubation in the dark, read-out: IC50 15 min
[6] = 3 h incubation in the dark, read-out: IC50 3 hours

| Molecule | IC50 [3, 5] | IC50 [3, 6] | other results |
| --- | --- | --- | --- |
| CCC1C2=Cc3c(C)c(C(=O)NCCS(=O)(=O)[O-])c4[n]3[Pd][n]3c(c(C)c(C(C)=O)c3=CC(=N2)C1C)=CC1=NC(=C4CC(=O)OC)C(CCC(=O)[O-])C1C.[K+].[K+] (stereo not shown) [Pd 3^1-oxo-15-methoxycarbonylmethyl-Rhodobacteriochlorin 13^1-(2-sulfoethyl)amide dipotassium salt, reference compound] |  |  | phototoxic killing concentration [1]: 300 nM; effectiveness against Gram-negative E. coli [2]: not against Gram-negative E. coli |
| Palladium 3^1-oxo-15-methoxycarbonylmethyl-Rhodobacteriochlorin-13^1-(2-N^2-diethylaminoethyl)amide-17^3-(2,3-dihydroxy propyl)amide [Compound 62] | 630 nM | 190 nM |  |
| 3^1-Oxo-15-methoxycarbonylmethyl-Rhodobacteriochlorin 13^1,17^3-di(3-N^3-trimethylammoniumpropyl)amide dicitrate salt [Compound 7] |  |  | Octanol/water partition ratio [4]: 50/50 |
| CCC1C2=Cc3c(C)c(C(=O)NCCNCCN(CC)CC)c4[n]3[Pd][n]3c(c(C)c(C(C)=O)c3=CC(=N2)C1C)=CC1=NC(=C4CC(=O)OC)C(CCC(=O)NCCNCCN(CC)CC)C1C (stereo not shown) [Compound 39, Palladium 3^1-oxo-15-methoxycarbonylmethyl-Rhodobacteriochlorin-13^1,17^3-di-(2-[(2-N^2-diethylaminoethyl)amino]ethyl) amide] | 2440 nM | 1100 nM |  |
| CCC1c2cc3[n-]c(c(CC(=O)OC)c4nc(cc5[n-]c(cc(n2)C1C)c(C(C)=O)c5C)C(C)C4CCC(=O)NCCCNCCCN)c(C(=O)NCCCNCCCN)c3C.[Pd+2] (stereo not shown) [Compound 42, Palladium 3^1-oxo-15-methoxycarbonylmethyl-Rhodobacteriochlorin-13^1, 17^3-di-(3-[(3-aminopropyl)amino]propyl)amide] | 680 nM | 280 nM |  |
| CC[C@H]1C2=NC(=Cc3c(C(C)=O)c(C)c4[n]3[Pd][n]3c(c(C)c(C(=O)NCC(O)CO)c3=C(CC(=O)OC)C3=NC(=C4)[C@@H](C)[C@@H]3CCC(=O)NCCNc3ccccn3)=C2)[C@@H]1C (stereo partly shown) [Compound 56, Palladium 3^1-oxo-15-methoxycarbonylmethyl-Rhodobacteriochlorin-13^1-(2,3-dihydroxypropyl)amide-17^3-(2-N-(2′-pyridyl)aminoethyl)amide] | 790 nM | 320 nM |  |
| CC[C@H]1C2=NC(=Cc3c(C(C)=O)c(C)c4[n]3[Pd][n]3c(c(C)c(C(=O)NCCN5CCOCC5)c3=C(CC(=O)OC)C3=NC(=C4)[C@@H](C)[C@@H]3CCC(=O)O)=C2)[C@@H]1C [Compound 29, Palladium 3^1-oxo-15-methoxycarbonylmethyl-Rhodobacteriochlorin-13^1-(2-morpholino-N-ethyl)amide] | 1900 nM | 1900 nM |  |
| CC[C@H]1C2=NC(=Cc3c(C(C)=O)c(C)c4[n]3[Pd][n]3c(c(C)c(C(=O)NCC(O)CO)c3=C(CC(=O)OC)C3=NC(=C4)[C@@H](C)[C@@H]3CCC(=O)NCCN3CCOCC3)=C2)[C@@H]1C (stereo partly shown) [Compound 53, Palladium 3^1-oxo-15-methoxycarbonylmethyl-Rhodobacteriochlorin-13^1-(2,3-dihydroxypropyl)amide-17^3-(2-morpholino-N-ethyl)amide] | 2000 nM | 900 nM |  |
| CC(=O)O.CC[C@H]1C2=NC(=Cc3c(C(C)=O)c(C)c4[n]3[Pd][n]3c(c(C)c(C(=O)NCCN(C)C)c3=C(CC(=O)OC)C3=NC(=C4)[C@@H](C)[C@@H]3CCC(=O)NCCCO)=C2)[C@@H]1C [Compound 66, Palladium 3^1-oxo-15-methoxycarbonylmethyl-Rhodobacteriochlorin-13^1-(2-N^2-dimethylaminoethyl)amide-17^3-(3-hydroxypropyl)amide] | 550 nM | 200 nM |  |
| CC[C@H]1C2=NC(=Cc3c(C(C)=O)c(C)c4[n]3[Pd][n]3c(c(C)c(C(=O)NCCN(CC)CC)c3=C(CC(=O)OC)C3=NC(=C4)[C@@H](C)[C@@H]3CCC(=O)NCCN(CC)CC)=C2)[C@@H]1C [Compound 45, Palladium 3^1-oxo-15-methoxycarbonylmethyl-Rhodobacteriochlorin-13^1, 17^3-di(2-N^2-diethylaminoethyl)amide] | 200 nM | 180 nM |  |
| CC[C@H]1C2=NC(=Cc3c(C(C)=O)c(C)c4[n]3[Pd][n]3c(c(C)c(C(=O)NCC(O)CO)c3=C(CC(=O)OC)C3=NC(=C4)[C@@H](C)[C@@H]3CCC(=O)NCCN3CCNCC3)=C2)[C@@H]1C (stereo partly shown) [Compound 54, Palladium 3^1-oxo-15-methoxycarbonylmethyl-Rhodobacteriochlorin-13^1-(2,3-dihydroxypropyl)amide-17^3-(2-piperazino-N-ethyl)amide] | 750 nM | 270 nM |  |
| CC[C@H]1C2=NC(=Cc3c(C(C)=O)c(C)c4[n]3[Pd][n]3c(c(C)c(C(=O)NCCCNCCCN)c3=C(CC(=O)OC)C3=NC(=C4)[C@@H](C)[C@@H]3CCC(=O)O)=C2)[C@@H]1C [Compound 32, Palladium 3^1-oxo-15-methoxycarbonylmethyl-Rhodobacteriochlorin-13^1-(3-[(3-aminopropyl)amino]propyl)amide] | 600 nM | 250 nM | PDT activity relative to compound 24 ([3]; at both incubation times): 4-5 times |
| CC[C@H]1C2=NC(=Cc3c(C(C)=O)c(C)c4[n]3[Pd][n]3c(c(C)c(C(=O)NCCCN)c3=C(CC(=O)OC)C3=NC(=C4)[C@@H](C)[C@@H]3CCC(=O)NCCCN)=C2)[C@@H]1C [Compound 34, Palladium 3^1-oxo-15-methoxycarbonylmethyl-Rhodobacteriochlorin-13^1, 17^3-di(3-aminopropyl)amide] | 480 nM | 200 nM |  |
| Palladium 3^1-oxo-15-methoxycarbonylmethyl-Rhodobacteriochlorin-13^1-(2-N^3-trimethylammoniumethyl)amide acetate (salt) [Compound 24] | 2400 nM | 1200 nM |  |
